Measured values taken from US10441687B2, “Wnt/beta-catenin inhibitor-eluting endovascular stent” (ALBERT EINSTEIN COLLEGE OF MEDICINE, INC., priority 2013, dated 2019).
“Also recorded” adds a separate entry of the source.

Tests used:
[1] = tested on: p53; assay: p53 luciferase-based reporter assay in primary vascular SMCs; type: cell-based; conditions: control primary vascular SMCs (Adeno-GFP)
Procedure: FIG. 10. […] The activity of p53 was measured by a luciferase-based reporter assay.
(§1) In order to test the role of Wnt/beta-catenin signaling in vascular SMC biology, beta-catenin was specifically inactivated in SMCs, using a genetic approach in the mouse. […] After midgestation, dilated arterial vessels without an evident SMC layer were observed (FIG. 7). […] It was determined that increased p53 activity in SMCs partially explains the effects of inactivating beta-catenin (FIG. 9).

[2] = tested on: Primary WT mouse aortic smooth muscle cells; assay: alamarBlue cell viability assay in primary mouse aortic smooth muscle cells; type: cell-based; conditions: 48 hours after treatment; 10% FBS/DMEM; increasing concentrations; p<0.0001 vs vehicle (0 uM)
Procedure: FIG. 11. Primary WT mouse aortic smooth muscle cells cultured in 10% FBS/DMEM medium were exposed to increasing concentrations of ICG-001 or vehicle (triplicates for each concentration). Cell viability was measured 48 hours after treatment by alamarBlue Assay. Cell viability (%, relative to vehicle treated cells, which were set as 100%) is plotted against the concentration of ICG-001 (uM).
as §1

Structure (SMILES) | p53 activity compared to vehicle (DMSO) ([1]; 10 uM XAV939, p<0.05) | p53 activity ([1]; wild type, luciferase-based reporter, dose dependence) | Cell viability (%, relative to vehicle treated cells) [2]
Oc1nc(-c2ccc(C(F)(F)F)cc2)nc2c1CSCC2 [XAV939] | significant increase in p53 activity | induced p53 activity in control primary vascular SMCs (Adeno-GFP) in a dose dependent manner; also recorded: induced p53 activity in wild type vascular SMCs | 
O=C1[C@H](Cc2ccc(O)cc2)N2C(=O)CCN(C(=O)NCc3ccccc3)[C@H]2CN1Cc1cccc2ccccc12 [ICG-001] |  |  | significantly decreases viability of MASMCs in culture in a dose-response manner
